Assay results taken from patent US12357666B1, “Traditional Chinese herbal plant composition for improving symptoms of liver cancer patients and compatibility method thereof” (The First Hospital of China Medical University, priority 2024, dated 2025).

Columns and labels:
[1] = Organ index (lung, liver, heart, kidney) of tumor mice; assay type: in vivo, BALB/c nude mice; conditions: 28 d
From the text: (§1) Totally 90 male BALB/c nude mice aged 5 weeks and with body weight of 19-22 g were used.
(§2) A total of 80 BALB/c nude mice were randomly selected and injected subcutaneously with Hep G2 cell line (5×10^6 cells) in the right armpits.
After 28 d of continuous administration, the mice in each group were weighed and killed by cervical dissection. Tumors and organs (lung, liver, heart and kidney) of the mice in each group were removed under sterile conditions, and washed with physiological saline. After washing, the tumors and the organs were dried with filter paper, weighed to obtain mass and recorded, and the tumor inhibition rate and organ index were calculated. The tumor mass of the mice was the average value of the tumor mass of each group of mice. Tumor inhibition rate=(tumor mass of mice in the model group-tumor mass of mice in the test group)/tumor mass of mice in the model group×100%. Organ index (mg/g)=organ mass (mg)/body mass (g) of mice.

[2] = tested on: Hep G2 cell line; assay: Anti-tumor effect on tumor mice (subcutaneous Hep G2 model): tumor mass and tumor inhibition rate; assay type: in vivo, BALB/c nude mice; conditions: 28 d
From the text: The effect example explored the anti-tumor effect of the herbal plant compositions of Embodiment 1 and Comparative Examples 1 to 3 on tumor mice, and a specific process is as follows.
as §1, §2
Dosing Criteria: the conventional gavage dose of mice was […]. Generally, it is also necessary to increase the dose of the original medicinal material of the herbal plant composition by 1 time and decrease the dose of the original medicinal material of the herbal plant composition by 1 time for gavage.
Low-dose Embodiment 1 Herbal Plant Composition Group: 10 mice, administered 5.27 g/kg Embodiment 1 herbal plant composition by gavage.
Medium-dose Embodiment 1 Herbal Plant Composition Group: 10 mice, administered 10.53 g/kg Embodiment 1 herbal plant composition by gavage.
High-dose Embodiment 1 Herbal Plant Composition Group: 10 mice, administered 21.06 g/kg Embodiment 1 herbal plant composition by gavage.
High-dose Comparative Example 1 Herbal Plant Composition Group: 10 mice, administered 21.06 g/kg Comparative Example 1 herbal plant composition by gavage.
High-dose Comparative Example 2 Herbal Plant Composition Group: 10 mice, administered 21.06 g/kg Comparative Example 2 herbal plant composition by gavage.
High-dose Comparative Example 3 Herbal Plant Composition Group: 10 mice, administered 21.06 g/kg Comparative Example 3 herbal plant composition by gavage.
Western medicine control group: 10 mice, administered 0.03 g/kg 5-fluorouracil by gavage.
After 28 d of continuous administration, the mice in each group were weighed and killed by cervical dissection. […] After washing, the tumors and the organs were dried with filter paper, weighed to obtain mass and recorded, and the tumor inhibition rate and organ index were calculated. […]

Cardiac Index ([1]; 0.03 g/kg by gavage): 5.13 mg/g
Liver index ([1]; 0.03 g/kg by gavage): 42.78 mg/g
Lung index ([1]; 0.03 g/kg by gavage): 5.96 mg/g
Renal index ([1]; 0.03 g/kg by gavage): 17.69 mg/g
liver index, renal index, lung index and cardiac index compared to the model group (in words) ([1]; Table 3, gavage): no significant change
SMILES: O=c1[nH]cc(F)c(=O)[nH]1 [Western medicine control group, 5-fluorouracil]
Tumor mass ([2]; 0.03 g/kg by gavage, Hep G2 tumor nude mice): 0.27 g
tumor inhibition rates in mice (in words) ([2]; Table 2, gavage): relatively high
Inhibition rate (%) ([2]; tumor inhibition vs model group, 0.03 g/kg by gavage): 48.07%
